Measurements published in PubChem BioAssay AID1259418 (Broad Institute, 2018).
Where “and” joins values, the source holds several entries; their conditions need not be identical. Equal values may be shown once. Inconclusive results are not listed. Calls of active or inactive are those of the source.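 Rule for the calls: active = fitted half-maximal concentration of signal decrease at or below twice the sample's top tested concentration; inconclusive = flat curve between -70 and -30 percent, or poor fit; inactive = flat within 30 percent, signal rise, or potency above limit.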

Target: T. gondii ME49Luc in IFN-y HeLa, luciferase, 72 h
Test: T. gondii growth inhibition with IFN-gamma, dose response, cell-based, ME49Luc, HeLa, luciferase, 72 h (AID 1259418)

SMILES: COc1cc([C@@H]2c3cc4c(cc3C(OC3O[C@@H]5COC(C)O[C@H]5[C@H](O)[C@H]3O)C3COC(=O)[C@@H]32)OCO4)cc(OC)c1O (some centres not stated)
- AC50: > 39 µM (inactive)

SMILES: Fc1cccc(CSc2nc(NCc3ccc(Cl)cc3)c3ccccc3n2)c1
- AC50: 14 µM

SMILES: Fc1ccc(CSc2nc(NCc3ccc(Cl)cc3)c3ccccc3n2)cc1
- AC50: 16 µM

SMILES: CCc1ccc(S(=O)(=O)N2CCC3(CC2)NCCN=C3NCc2cccc(F)c2)cc1
- AC50: 16.3 µM

SMILES: CCc1c(C)sc2c1CCN(Cc1nc(-c3ccc(OC(C)C)cc3)oc1C)C2c1ccccc1 (configuration not stated)
- AC50: > 39 µM (inactive)

SMILES: O=C1CCc2cc(NC(=O)c3cccc(C(F)(F)F)c3)ccc2N1
- AC50: 16.8 µM

SMILES: CC(C)n1c(C(=O)N2CCN(c3ccncc3)CC2)cc2c1c1ccccc1n2C
- AC50: 19.9 µM

SMILES: Cc1ccc(-c2nc3c(s2)CN(C(=O)Nc2ccc(C)cc2C)CC3)cc1
- AC50: 35 µM

SMILES: COc1ccccc1NC(=O)N1CCCCN2[C@H](CO)[C@@H](c3ccc(-c4cccc(C#N)c4)cc3)[C@@H]2C1
- AC50: 21.5 µM

SMILES: O=C(NC1CCCC1)N1CC(=O)N2[C@H](CO)[C@H](c3ccc(C4=CCCCC4)cc3)[C@@H]2C1
- AC50: 35.3 µM

SMILES: CCOc1ccccc1N(Cc1nc(-c2ccccc2)oc1C)S(=O)(=O)c1ccccc1
- AC50: 7.75 µM

SMILES: CCc1ccc(NS(=O)(=O)c2cc3c4c(c2)CCC(=O)N4CCC3)cc1
- AC50: 37.7 µM

SMILES: CC(C)(Cc1ccc2ccccc2c1)NC[C@@H](O)COc1cccc(Cl)c1C#N
- AC50: 13.3 µM

SMILES: O=C(CCC1N=C2c3ccccc3N=C(SCc3ccccc3F)N2C1=O)NCc1ccccc1 (configuration not stated)
- AC50: 29.4 µM

SMILES: Cc1ccc(-c2nc(CN3CCN(C(=O)Nc4ccc(C)c(C)c4)CC3)c(C)o2)cc1
- AC50: 23.2 µM

SMILES: CCCCCCC(C)(C)c1ccc(C2CC(O)CCC2CCCO)c(O)c1 (configuration not stated)
- AC50: 8.47 µM

SMILES: C/C=C/c1ccc([C@H]2[C@@H](CO)N3CCCCN(S(=O)(=O)c4ccc(OC)cc4)C[C@@H]23)cc1
- AC50: 18.4 µM

SMILES: COc1ccccc1CNC(=O)CCC1N=C2c3ccccc3N=C(SCc3cccc(F)c3)N2C1=O (configuration not stated)
- AC50: > 39 µM (inactive)

SMILES: CCc1cnc(N2[C@@H](C#N)[C@@H](c3ccc(C#Cc4ccccc4F)cc3)[C@@H]2CO)s1
- AC50: 17.2 µM

SMILES: COc1ccc(-c2nc(NC3CC3)c3ccccc3n2)cc1
- AC50: 14.9 µM

SMILES: COc1cccc(N(Cc2nc(-c3cccc(C)c3)oc2C)S(=O)(=O)c2ccccc2)c1
- AC50: 8.5 µM

SMILES: Cc1ccccc1Cn1c(CN2CCC(C(=O)NCCCN3CCCC3=O)CC2)cc2ccccc21
- AC50: > 39 µM (inactive)

SMILES: Cc1ccccc1S(=O)(=O)N1C[C@@H]2N[C@H](C1)C2c1ccc(/C=C/c2ccccc2)cc1 (some centres not stated)
- AC50: 9.34 µM

SMILES: O=C(NCCc1csc(-c2ccccc2)n1)C1CCN(S(=O)(=O)c2cccc(Cl)c2)CC1
- AC50: > 39 µM (inactive)

SMILES: COc1ccccc1N(Cc1nc(-c2ccc(C)cc2)oc1C)S(=O)(=O)c1ccccc1C
- AC50: 15.1 µM

SMILES: CCCNC(=O)[C@@H]1[C@@H](CO)[C@@H]2Cn3c(ccc(/C=C/c4ccccc4)c3=O)[C@@H]2N1CC1CC1
- AC50: 18.5 µM

SMILES: O=C(CCC1N=C2c3ccccc3N=C(SCc3ccc(Cl)cc3)N2C1=O)NCc1cccs1 (configuration not stated)
- AC50: 14.9 µM

SMILES: CCc1ccc(S(=O)(=O)N2CCC3(CC2)NCCN=C3NCc2ccc(C)cc2)cc1
- AC50: 8.88 µM

SMILES: CCCc1cc(C2CCCN2C(=O)Cn2nc(C(F)(F)F)c3c2CCCC3)no1 (configuration not stated)
- AC50: 21.6 µM

SMILES: CCN(C[C@@H]1N[C@@H](CO)[C@H]1c1ccc(-c2ccc(F)cc2)cc1)C(=O)CN(C)C
- AC50: 21.3 µM

SMILES: CC(C)CNc1nc2c(cc1C(=O)NC(C)C)CCN(c1ccncn1)CC2
- AC50: 26.5 µM

SMILES: Clc1ccc(-c2nc(NCc3ccc4c(c3)OCO4)c3ccccc3n2)cc1
- AC50: 11.3 µM

SMILES: Cc1cccc(CNC2=NCCNC23CCN(S(=O)(=O)c2ccc(C(C)C)cc2)CC3)c1
- AC50: 13 µM

SMILES: C[C@@H]1CN(Cc2ccc(F)cc2)CCN1C(=O)COc1ccc(Cl)cc1NC(N)=O
- AC50: > 39 µM (inactive)

SMILES: COc1ccc(S(=O)(=O)N2CCC(C(=O)NCCc3csc(-c4ccccc4)n3)CC2)cc1
- AC50: > 20 µM (inactive)

SMILES: COc1cccc(S(=O)(=O)N2CCCCN3[C@H](C2)[C@H](c2ccc(C#CCC(C)C)cc2)[C@@H]3CO)c1
- AC50: 9.96 µM and 8.54 µM

SMILES: CC1CCCCN1CCNc1nc(-c2ccc(Cl)cc2)nc2ccccc12 (configuration not stated)
- AC50: 10.9 µM and 12.7 µM

SMILES: COc1ccc(S(=O)(=O)N2CCCCN3[C@H](C2)[C@@H](c2ccc(C#CCC(C)C)cc2)[C@@H]3CO)cc1
- AC50: 12.3 µM

SMILES: Cc1cccc(NC(=O)c2cc(-c3cnc(N4CCOCC4)nc3)cn2CC2CC2)c1
- AC50: 22.2 µM

SMILES: COCC(=O)N1[C@H](C#N)[C@H](c2ccc(C#CCC3CCCC3)cc2)[C@@H]1CO
- AC50: 29.6 µM and 27.8 µM

SMILES: c1ccc2c(Oc3nc(Nc4ccc(N5CCOCC5)cc4)c4ncn(C5CCCCC5)c4n3)cccc2c1
- AC50: 16.4 µM

SMILES: COc1ccccc1-c1nc(CN(c2ccccc2OC)S(=O)(=O)c2ccc(C)cc2)c(C)o1
- AC50: 12.4 µM

SMILES: CCCNC(=O)N1C[C@@H]2N[C@H](C1)C2c1ccc(-c2ccc(OC)cc2)cc1 (some centres not stated)
- AC50: 17.9 µM and 23.9 µM

SMILES: COc1ccc(S(=O)(=O)N2CCc3c([nH]c4ccccc34)C2c2cc(F)ccc2F)cc1 (configuration not stated)
- AC50: 17.1 µM

SMILES: Cc1ccccc1-c1ccc(C2[C@H]3CNC[C@@H]2N3Cc2ccc3c(c2)OCO3)cc1 (some centres not stated)
- AC50: > 39 µM (inactive)

SMILES: C[C@H](O[C@H]1OCCN(Cc2n[nH]c(=O)[nH]2)[C@H]1c1ccc(F)cc1)c1cc(C(F)(F)F)cc(C(F)(F)F)c1
- AC50: 15.4 µM

SMILES: Cc1ccc(CCNc2nc(-c3ccc(Cl)cc3)nc3ccccc23)cc1
- AC50: 22.7 µM
